Measurements reported in patent US20070128665A1, “Methods for identifying compounds interacting with small membrane-bound gtp-ases” (priority 2003, published 2007).
Like-named read-outs stand apart in the source and are kept apart here.

Columns and labels:
[1] = tested on: membrane bound active Ras (H-Ras); test: GFP-RBD dissociation in H-Ras transfected CHO.T cells; assay type: cell-based; settings: ATP 50 μM
Excerpt: FIG. 6. […] GFP-RBD is localised to the plasma membrane and endomembranes in non-starved, H-Ras transfected CHO.T cells.

[2] = tested on: membrane bound active Ras (H-Ras); test: RAPID assay (Ras Activity Probe for Inhibitor Detection), GFP-RBD reporter, COS-7 cells; assay type: cell-based; settings: 50 μM ATP
Procedure: COS-7 cells were grown in DMEM supplemented with 10% FCS. The day before transfection cells were seeded out on 6-well tissue culture plates containing 22 mm circular glass coverslips to obtain a confluency of 50-60% prior to transfection. DNA constructs (pcDNA3.1 H-Ras, pEGFP-C3 RBD and optionally pCl-neo CAPRI) were incubated with Genejuice (Novagen) according to manufacturers instructions and added to the cell medium to transfect (lipofect) cells. 24 hours later coverslips were mounted in a heated stage (37° C.) in KH buffer [5 mM HEPES, 10 mM glucose, 25 mM NaHCO3 1.2 mM K2HPO4, 118 mM NaCl, 4.7 mM KCl, 1.2 mM MgSO4, 1.3 mM CaCl2 (pH 7.4)]. Nipkow confocal microscopy was performed using a PerkinElmer UltraView LCI system to image GFP. […] Inhibition of Ras activation, or deactivation of active Ras, was detected by dissociation of the fluorescent […] reporter from the plasma and/or Golgi membranes, into the cytosol. This was seen as a loss of fluorescent signal from the membrane/increase in fluorescent signal in the cytosol.
The inverse relative change in fluorescence intensity at a given time point is expressed as, 1−(cytosolic fluorescence intensity/maximum experimental cytosolic fluorescence intensity)
(§1) Relative Dissociation=maximal pixel intensity of cytosolic ROI (usually at time zero) divided by the cytosolic ROI at time x during the experiment.

CAPRI C2A/C2B domains = test: GFP-C2A/C2B localisation, live confocal microscopy, COS-7 cells; assay type: cell-based
Procedure: Experiments were performed to assess expression of GFP-C2A/C2B domain COS-7 cells imaged by live confocal microscopy. Cells were transfected with GFP-C2A/C2B vector by lipofection and imaged 24 hours later. […] Nuclear GFP-C2A/C2B is diffusely localised throughout the nucleoplasm before stimulation (due to size of the fusion protein). […] The stimulated association/disassociation of these structures are probably due to a specific interaction with endogenous entities near the plasma membrane and within the perinuclear region, rather than non-specific aggregation (see 20 second image).

CAPRI = test: GFP-CAPRI translocation assay, live confocal imaging, HeLa cells; assay type: cell-based; settings: HeLa cells expressing GFP-C2B; carbachol stimulation
Procedure: The ability of the activating peptide to induce translocation of CAPRI to the plasma membrane can be monitored by applying cell-permeable peptide to live cells expressing GFP-tagged CAPRI imaged by confocal or wide-field microscopy. Experiments were performed to assess expression of GFP-C2B compared with GFP-CAPRI in HeLa cells 24 hrs after transient transfection by lipofection. Live imaging was performed by confocal microscopy. The results are shown in FIG. 3, the image for GFP-C2B is shown on the left hand side, GFP-CAPRI images at 0 s, 30 s and 60 s are shown on the right. Cells expressing GFP-CAPRI were stimulated with carbachol to mobilise intracellular Ca^2+, time=seconds after stimulation. […] CAPRI activating peptides induce the translocation of GFP-CAPRI to the plasma membrane in the absence of agonist stimulation.

[3] = tested on: membrane bound active Ras (H-Ras); settings: 100 μM histamine
Excerpt: FIG. 9. […] Dissociation of the RBD from the plasma membrane is expressed as Relative Dissociation=maximal pixel intensity of cytosolic ROI (usually at time zero) divided by the cytosolic ROI at time x during the experiment.
as §1

SMILES: Nc1ncnc2c1ncn2[C@@H]1O[C@H](COP(=O)(O)OP(=O)(O)OP(=O)(O)O)[C@@H](O)[C@H]1O [ATP]
- deactivation of Ras at the plasma membrane (GFP-RBD dissociation) ([1]; CHO cells stably expressing CAPRI, H-Ras transfected, non-starved): rapid deactivation of Ras at the plasma membrane
- GFP-RBD dissociation, parental cells ([1]; parental CHO.T cells): No such dissociation
- deactivation of Ras (GFP-RBD dissociation), control cells ([2]; COS cells transfected with H-Ras and GFP-RBD only, or GAP-dead CAPRI (R47S mutant)): no detectable deactivation
- dissociation of GFP-RBD from the plasma membrane (Ras deactivation) ([2]; non-starved COS-7 transfected with H-Ras, GFP-RBD and CAPRI): rapid dissociation of the GFP-RBD exclusively from the plasma membrane

SMILES: O=C(O)CN(CCOCCOCCN(CC(=O)O)CC(=O)O)CC(=O)O [EGTA]
- dissociation of GFP-C2A/C2B chimera from the membrane (CAPRI C2A/C2B domains; COS-7 cells after ionomycin, 5 μM EGTA in extracellular medium): rapid dissociation of the GFP-C2A/C2B chimera from the membrane into the cytosol and nucleoplasm

SMILES: C[N+](C)(C)CCOC(N)=O [carbachol]
- GFP-C2B localisation (CAPRI): No detectable effect

SMILES: NCCc1c[nH]cn1 [histamine]
- deactivation of Ras (GFP-RBD dissociation), control cells ([3]; HeLa cells transfected with H-Ras and GFP-RBD only, or GAP-dead CAPRI (R47S mutant)): no detectable deactivation
- dissociation of GFP-RBD from the plasma membrane (Ras deactivation) ([3]; non-starved HeLa transfected with H-Ras, GFP-RBD and CAPRI): rapid dissociation of the GFP-RBD from the plasma membrane

SMILES: C[C@H](CCC(=O)O)C[C@H](C)C[C@H](C)C(=O)/C=C(\O)[C@H](C)C[C@H](C)C/C=C/[C@@H](C)[C@@H](O)[C@@H](C)[C@@H](O)C[C@@H]1CC[C@@](C)([C@H]2CC[C@@](C)([C@@H](C)O)O2)O1 [ionomycin]
- redistribution of GFP-C2A/C2B chimera (CAPRI C2A/C2B domains; COS-7 cells, ionomycin stimulation): forms punctate vesicular structures under the plasma membrane
